Patent US10414769B2, “5,8-dimethyl-9-phenyl-5,8-dihydro-6H-pyrazolo[3,4-h]quinazolin-2-yl)-(1H-pyrazol-3-yl)-amines as IGF-1R/IR inhibitors” (Boehringer Ingelheim International GmbH, priority 2015, dated 2019)

Key:
[1] = molecular target: T1, human IGF-1R (Homo sapiens, UniProt P08069); assay: Insulin-like growth factor-1 receptor (IGF-1R)-kinase assay (DELFIA); format: biochemical; conditions: inhibition of IGF-1R-kinase activity
T1 construct: human IGF-1R (amino acids 964-1370) is expressed as a fusion protein; made in house; host or cells: High Five insect cells (Invitrogen)
T1 sequence (P08069 964-1367 limits assumed): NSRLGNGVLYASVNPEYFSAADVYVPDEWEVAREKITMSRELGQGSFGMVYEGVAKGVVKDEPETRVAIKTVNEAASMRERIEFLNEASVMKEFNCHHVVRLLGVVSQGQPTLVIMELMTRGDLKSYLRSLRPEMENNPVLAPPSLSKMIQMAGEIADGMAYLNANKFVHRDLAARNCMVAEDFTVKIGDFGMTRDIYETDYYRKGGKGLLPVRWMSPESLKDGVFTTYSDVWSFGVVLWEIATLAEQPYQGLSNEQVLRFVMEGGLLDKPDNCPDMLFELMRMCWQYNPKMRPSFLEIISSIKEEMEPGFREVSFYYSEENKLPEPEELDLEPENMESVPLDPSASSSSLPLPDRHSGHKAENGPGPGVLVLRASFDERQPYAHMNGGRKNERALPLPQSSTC
Method: Insulin-Like Growth Factor-1 Receptor (IGF-1R)-Kinase Assay
The kinase activity is measured by DELFIA® assay (dissociation-enhanced lanthanide fluorescence immunoassay, Perkin Elmer). The cytoplasmic kinase domain of human IGF-1R (amino acids 964-1370) is expressed as a fusion protein with a glutathione-S-transferase tag (IGF-1R-GST) in High Five™ Cells (Invitrogen). Enzyme activity is measured in the presence of substances and a control substance. Poly-glutamate-tyrosine peptide (pEY, Sigma Aldrich) and biotinylated pEY (bio-pEY) are used as reaction substrates.
10 μL of substance in 25% DMSO are mixed with 30 μL of IGF-1R-GST solution (67 mM HEPES pH 7.4, 15 μg/mL pEY, 1.7 μg/mL bio-pEY, 13.3 mM MgCl2, 3.3 mM dithiothreitol, 0.0033% Brij 35, 2 ng IGF-1R-GST) in 96-well plates. The reactions are started with 10 μL of a 750 μM ATP solution. After 40 min at RT the reactions are stopped with 50 μL of stop solution (250 mM EDTA, 20 mM HEPES pH 7.4). 90 μL from each reaction are transferred onto streptavidin-coated 96-well plates. After 120 min incubation at RT the plates are washed three times with 200 μL phosphate-buffered saline (PBS) per well. The plates are incubated for 60 min with 100 μL of europium-coupled antibody against phospho-tyrosine (diluted 1/2000 in Perkin Elmer DELFIA assay buffer) per well. The plates are washed three times with 200 μL per well of DELFIA washing buffer (Perkin Elmer). 100 μL DELFIA Enhancement Solution (Perkin Elmer) is added to each well, and the plates are incubated for 10 min. The fluorescence signal is measured with a Wallac Victor TRF Reader. IC50 values for the inhibition of the IGF-1R-kinase activity are calculated using the programme GraphPad (Version 3.0).

[2] = tested on: TC-71 (EWING'S sarcoma) cells; assay: Cell proliferation assay TC-71 (Alamar Blue); format: cell-based; conditions: anti-proliferative effect, TC-71 cells, 72 h; read-out: TC71 EC50
Method: (§1) Cell Proliferation Assays
(§2) Compounds were tested for their anti-proliferative effects in the TC-71 (EWING'S sarcoma) and HCT 116 (colorectal carcinoma) cancer cell lines in vitro. Published scientific data has described that interference with the IGF-1R signaling pathway reduces the proliferation of TC-71 cells (Manara et al, 2007). Therefore TC-71 cells served as a positive control cell line for monitoring the activity of compounds against IGF-1R-mediated cell proliferation. […] Therefore the HCT 116 cell line served as a negative control.
(§3) 2000 TC-71 cells or 1000 HCT 116 cells were seeded per well in 180 μL IMDM+10% foetal calf serum (FCS)+penicillin/streptomycin into 96-well microtitre plates. The plates were placed in a cell culture incubator (37° C. in a humidified atmosphere of […]/5% CO2) overnight. The following day, serial dilutions of compounds, prepared in duplicates, were transferred onto the cell layers (controls without compound). The cells were cultivated for a further 72 h in the cell culture incubator. 20 μL of Alamar Blue™ (Serotec Ltd, Dusseldorf, Germany) was added to each well and the plates incubated for 7 h in the cell culture incubator. Fluorescence (extinction wavelength of 544 nm and emission at 590 nm) was then measured and the normalized data fitted by iterative calculation with a sigmoidal curve analysis program (Graph Pad Prism) with a variable Hill slope to determine the EC50 values.

[3] = tested on: HCT 116 (colorectal carcinoma) cells; assay: Cell proliferation assay HCT 116 (Alamar Blue); format: cell-based; conditions: Homo sapiens; anti-proliferative effect, HCT 116 cells (negative control line), 72 h
Method: as §1, §2, §3

Row | Structure (SMILES) | IC50 [1] [nM] | EC50 [2] [nM] | EC50 [3] [nM]
1 | CC(C(=O)OC[C@H]1CCCN1)N1CCN(CCn2ccc(Nc3ncc4c(n3)-c3c(nn(C)c3-c3ccccc3)C[C@H]4C)n2)CC1 (stereo partly drawn) [Compound I-4] | 1.5 | 6.82 | > 2500
2 | C[C@@H]1Cc2nn(C)c(-c3ccccc3)c2-c2nc(Nc3ccn(CCN4CCN(CCO)CC4)n3)ncc21 [Compound I-10] | 2.2 | 5.93 | > 2500
3 | C[C@@H]1Cc2nn(C)c(-c3ccccc3)c2-c2nc(Nc3ccn(CCN4CCN(CC(=O)OC5CCOC5)CC4)n3)ncc21 (stereo partly drawn) [Compound I-6] | 1.1 | 5 | > 2500
4 | C[C@@H]1Cc2nn(C)c(-c3ccccc3)c2-c2nc(Nc3ccn(CCN4CCN(CC(C)(C)O)C(=O)C4)n3)ncc21 [Compound I-5] | 4.8 | 4 | > 2500
